Values after ≈ are worked out from the molar mass of the structure shown.
Test system: Caenorhabditis elegans
Assay: Nematocidal against Caenorhabditis elegans N2 assessed as motility after 16 hrs
Assay type: functional
Details: N2, 16 h

| Structure (SMILES) | EC95 [µg/mL] |
| --- | --- |
| OC(CC/C=C/c1ccccc1)CCc1ccccc1 (stereo not given) | 0.7 (≈ 2.63 µM) |
| O=C(CC/C=C/c1ccccc1)CCc1ccccc1 | 9 (≈ 34 µM) |
| O=C(CCc1ccccc1)C[C@@H](O)/C=C/c1ccccc1 | 1 (≈ 3.57 µM) |
| OC(/C=C/C=C/c1ccccc1)CCc1ccccc1 (stereo not given) | > 100 |
| CC(=O)OC(CC/C=C/c1ccccc1)CCc1ccccc1 (stereo not given) | 9 (≈ 29.2 µM) |
